Experimental findings from the NIST ThermoML archive (doi:10.1016/j.fluid.2006.10.004) are described below.

SMILES strings stand for the structures. Numbers after ± are expanded uncertainties.

The nature of data set [1]: refractive index (Na D-line) (dimensionless). Conditions: 293.15 K; 101.33 kPa; Liquid; Standard Abbe refractometry.
The conditions of data set [2]: 293.15 K; 101.33 kPa; Liquid.

What is called refractive index is a measure of how strongly the sample bends light. For orientation: mass density means mass per unit of volume. Turning to `CC(=O)CCC(C)C` [5-methyl-2-hexanone], the refractive index in data set [1] was found to be 1.4074 ± 0.0008. Moreover, the mass density in data set [2] is listed as 887.5 ± 1 kg/m3.
Consider `CCC(=O)O` [propanoic acid], for which the refractive index in data set [1] was determined as 1.3811 ± 0.0008. The mass density in data set [2] is recorded as 992.7 ± 0.6 kg/m3.
For the compound `CC(C)CC(=O)CC(C)C` [2,6-dimethyl-4-heptanone], in data set [1], the refractive index was 1.4155 ± 0.0008. Moreover, the mass density in data set [2] was determined as 804.8 ± 1.3 kg/m3.
Consider `CCC(=O)CCC(C)C` [6-methyl-3-heptanone], for which the refractive index in data set [1] was found to be 1.4194 ± 0.0008. The mass density in data set [2] is given as 822.7 ± 1.2 kg/m3.
